This note sets out measurements from patent US9955689B2, “Method for promoting plant growth” (SUMITOMO CHEMICAL COMPANY, LIMITED, priority 2012, dated 2018).

This test relates to Nicotiana benthamiana. Description: Test Example 5: growth promotion under low-temperature stress by hydroponics of Nicotiana benthamiana (1 ppm). The format is in vivo. The conditions noted are these: compound at 1 ppm, 7 days at 1.5±1.0° C. low-temperature stress, then 3 days at 22° C., 5 or greater = growth promotion effect, read-out: value of a relative leaf area (Equation (1), area of green leaf). The procedure:
Test Example 5. Test for Evaluating Growth Promotion Under Low-Temperature Stress by Hydroponics of Nicotiana benthamiana
(Cultivation and Compound Treatment)
A DMSO solution, which contained one of the compounds 9, 10, 15, 16, 27 to 29, 31 to 37, 40, 44, 47, 48, 52, 55, 56, 58, 61, 63, 81, 87, 89, 92, 95, 98, 100, 102, 105, 108, 109, 111, 113, and 115 of the present invention at a concentration of 1,000 ppm, was prepared. The DMSO solution of the compound of the present invention was added at a volume ratio of 1/1,000 to the Murashige-Scoog medium of a ½-fold concentration (a medium containing 2.3 g of mixed salts (manufactured by Wako Pure Chemical Industries, Ltd.), 200 mg of Myo-inositol (manufactured by Sigme-Aldrich Co. LLC.), 2 mg of niconitic acid (manufactured by Wako Pure Chemical. Industries, Ltd.), 2 mg of pyridoxine hydrochloride (manufactured by Wako Pure Chemical Industries, Ltd.), 20 mg of thiamine hydrochloride (manufactured by Wako Pure Chemical Industries, Ltd.), 20 g of sucrose (manufactured by Wako Pure Chemical Industries, Ltd.), and 1 g of MES (manufactured by DOJINDO LABORATORIES) respectively per 1 L of water and having pH adjusted to 5.8), thereby preparing a medium containing the compound of the present invention at a concentration of 1 ppm.
Seeds of Nicotiana benthamiana were seeded in the 5 μL of the medium and cultured overnight at 22° C. Thereafter, 45 μL of the medium containing the compound of the present invention at a concentration of 1 ppm was added thereto, and the seeds are cultured for 7 days at 22° C. under the conditions of an illuminance of 4,000 lux, and a day length of 16 hours, and the seedlings raised from the Nicotiana benthamiana were treated with the compound. Moreover, instead of the above medium a test plot, which was obtained by performing the same treatment by using a medium prepared by adding DMSO to the Murashige⋅Scoog medium of ½-fold concentration at a volume ratio of 1/1,000, was used as a control plot not treated with the compound.
(Low-Temperature Stress Treatment)
The seedlings of the Nicotiana benthamiana treated with the compound were subjected to low-temperature treatment by being cultured for 7 days at 1.5±1.0° C., under the conditions of an illuminance of 2,000 lux, and a day length of 16 hours.
The seedlings of the Nicotiana benthamiana having undergone the low-temperature stress treatment were cultured for 3 days at 22° C. under the conditions of an illuminance of 4,000 lux, and a day length of 16 hours. Thereafter, the area of green leaf was quantified by Scanalyzer HTS (manufactured by LemnaTec GmbH). Moreover, the value of the control plot not treated with the compound that had not yet been subjected to the low-temperature stress treatment was measured in the same manner. A value of a relative leaf area was calculated based on the following equation (1), and if the relative value of leaf area was 5 or greater, the compound was evaluated to have a growth promotion effect. As a result of the evaluation, it was confirmed that when the plant was treated with one of the compounds 9, 10, 15, 16, 27 to 29, 31 to 37, 40, 44, 47, 48, 52, 55, 56, 58, 61, 63, 81, 87, 89, 92, 95, 98, 100, 102, 105, 108, 109, 111, 113, and 115 of the present invention at 1 ppm, the value of a relative leaf area was 5 or greater, compared to the area of green leaf of the control plot not treated with compound. Accordingly, it was confirmed that the treatment using the compound of the present invention improve a growth promotion effect. Relative leaf area=100*(a green area of a plot treated with the compound of the present invention minus(−) a green area of a plot not treated with the compound of the present invention)/(a green area of a control plot not treated with the compound of the present invention that had not yet been subjected to low-temperature stress treatment minus(−) a green area of a control plot not treated with the compound of the present invention) Equation (1): […]
Turning to `O=C(O)c1cc2c(Br)cccc2s1` [Present compound 10, 4-bromobenzo[b]thiophene-2-carboxylic acid], the relative leaf area at 1 ppm is at least 5%.
As for `O=C(O)c1cc2cc(I)ccc2s1` [Present compound 15, 5-iodobenzo[b]thiophene-2-carboxylic acid], the relative leaf area at 1 ppm was at least 5%.
With `N#Cc1ccc2sc(C(=O)O)cc2c1` [Present compound 16, 5-cyanobenzo[b]thiophene-2-carboxylic acid], the relative leaf area at 1 ppm was at least 5%.
Under `Cc1cccc(-c2cccc3cc(C(=O)O)sc23)c1` [Present compound 40, 7-(3-methylphenyl)benzo[b]thiophene-2-carboxylic acid] stands at least 5%; under `O=C(O)c1cc2cc(-c3ccccn3)ccc2s1` [Present compound 44, 5-(2-pyridyl)benzo[b]thiophene-2-carboxylic acid], at least 5%; under `O=C(O)c1cc2ccc(-c3ccc(C(F)(F)F)nc3)cc2s1` [Present compound 47, 6-(6-trifluoromethyl-3-pyridyl) benzo[b]thiophene-2-caboxylic acid], at least 5%.
Turning to `O=C(O)c1cc2cc(-c3ncccn3)ccc2s1` [Present compound 48, 5-(2-pyrimidinyl)benzo[b]thiophene-2-carboxylic acid], the relative leaf area at 1 ppm was at least 5%.
`O=C(O)c1cc2c(C(=O)O)cccc2s1` [Present compound 52, benzo[b]thiophene-2,4-dicarboxylic acid]: the relative leaf area at 1 ppm was at least 5%.
In the case of `CC(=O)c1ccc2sc(C(=O)O)cc2c1` [Present compound 56, 5-acetylbenzo[b]thiophene-2-carboxylic acid] it was at least 5%; in that of `O=C(O)c1cc2cc(C(=O)C(F)(F)F)ccc2s1` [Present compound 58, 5-(trifluoroacetyl)benzo[b]thiophene-2-carboxylic acid], at least 5%.
In the case of `Nc1ccc2sc(C(=O)O)cc2c1` [Present compound 61, 5-aminobenzo[b]thiophene-2-carboxylic acid] it was at least 5%; in that of `Nc1c(C(=O)O)sc2ccccc12` [Present compound 63, 3-amino-benzo[b]thiophene-2-carboxylic acid], at least 5%.
Consider `COc1cccc2sc(C(=O)O)cc12` [Present compound 81, 4-methoxybenzo[b]thiophene-2-carboxylic acid], for which the relative leaf area at 1 ppm was at least 5%.
In the case of `CC(C)Oc1c(C(=O)O)sc2ccccc12` [Present compound 87, 3-isopropoxybenzo[b]thiophene-2-carboxylic acid], the relative leaf area at 1 ppm is at least 5%.
Take `O=C(O)c1cc2cc(OC(F)(F)F)ccc2s1` [Present compound 89, 5-trifluoromethoxybenzo[b]thiophene-2-carboxylic acid]: the relative leaf area at 1 ppm is at least 5%.
As to `COc1cccc(COc2ccc3cc(C(=O)O)sc3c2)c1` [Present compound 92, 6-(3-methoxybenzyloxy)benzo[b]thiophene-2-carboxylic acid], the relative leaf area at 1 ppm was at least 5%.
In the case of `O=C(O)c1cc2cccc(Oc3ccc(C(F)(F)F)cc3)c2s1` [Present compound 95, 7-(4-trifluoromethylphenoxy)benzo[b]thiophene-2-carboxylic acid] it was at least 5%.
For `O=C(O)c1cc2cc(SC(F)(F)F)ccc2s1` [Present compound 98, 5-(trifluoromethylthio)benzo[b]thiophene-2-carboxylic acid], the relative leaf area at 1 ppm was at least 5%.
For `O=C(O)c1cc2cc(S(=O)(=O)C(F)(F)F)ccc2s1` [Present compound 100, 5-(trifluoromethylsulfonyl)benzo[b]thiophene-2-carboxylic acid], the relative leaf area at 1 ppm is at least 5%.
Under `O=C(O)c1cc2c(Cl)c(Cl)ccc2s1` [Present compound 102, 4,5-dichlorobenzo[b]thiophene-2-carboxylic acid] stands at least 5%; under `O=C(O)c1sc2ccc(C(F)(F)F)cc2c1Cl` [Present compound 105, 3-chloro-5-trifluoromethylbenzo[b]thiophene-2-carboxylic acid], at least 5%; under `Nc1c(C(=O)O)sc2ccc(C(F)(F)F)cc12` [Present compound 108, 3-amino-5-trifluoromethylbenzo[b]thiophene-2-carboxylic acid], at least 5%.
With `CNc1c(C(=O)O)sc2ccc(C(F)(F)F)cc12` [Present compound 109, 3-(N-methylamino)-5-trifluoromethylbenzo[b]thiophene-2-carboxylic acid], the relative leaf area at 1 ppm is at least 5%.
For the compound `O=C(O)c1sc2ccc(C(F)(F)F)cc2c1O` [Present compound 111, 3-hydroxy-5-trifluoromethylbenzo[b]thiophene-2-carboxylic acid], the relative leaf area at 1 ppm is at least 5%.
Turning to `CCOc1c(C(=O)O)sc2ccc(C(F)(F)F)cc12` [Present compound 113, 3-ethoxy-5-trifluoromethylbenzo[b]thiophene-2-carboxylic acid], the relative leaf area at 1 ppm was at least 5%.
In the case of `O=C(O)c1sc2ccc(C(F)(F)F)cc2c1OCc1ccccc1` [Present compound 115, 3-benzyloxy-5-trifluoromethylbenzo[b]thiophene-2-carboxylic acid] it was at least 5%.
